These results are taken from US20050065118A1, “Organosulfur inhibitors of tyrosine phosphatases” (priority 2001, published 2005).

Data set [1] has as its target T1, TC-PTP (Homo sapiens, UniProt P17706).
T1 construct: purchased NEB
T1 sequence (P17706 1-317 limits assumed): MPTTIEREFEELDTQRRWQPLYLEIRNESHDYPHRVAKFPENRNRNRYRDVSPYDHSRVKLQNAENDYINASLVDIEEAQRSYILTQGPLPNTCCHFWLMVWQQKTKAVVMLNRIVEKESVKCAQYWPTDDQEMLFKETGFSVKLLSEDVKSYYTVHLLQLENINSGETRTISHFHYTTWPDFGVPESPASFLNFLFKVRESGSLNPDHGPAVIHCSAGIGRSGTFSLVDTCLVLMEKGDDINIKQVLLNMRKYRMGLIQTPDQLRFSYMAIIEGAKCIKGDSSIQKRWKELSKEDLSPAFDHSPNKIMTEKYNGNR
In words: TC-PTP inhibition, pNPP tyrosine phosphatase assay. Format: biochemical. The conditions noted are these: two values in a cell = two determinations. The method, then:
(§1) Alternatively, a pNPP assay can be used to screen compounds for tyrosine phosphatase inhibitory activity as follows: A 5× stock of pNPP (p-nitrophenol phosphate) substrate is prepared as 50 mM pNPP in assay buffer prepared as described above. Various tyrosine phosphatase solutions can be prepared as follows: • PTP-1B (SBI purified, 1 mg/mL) as a 1:250 dilution (to a final concentration of 4 μg/mL); • TC-PTP (NEB, 1000 units in 100 μL) as a 1:50 dilution (to a final concentration of 2U/10 μL (4 μg/mL)); • CD45 (Calbiochem, 20 μg, 400 units in 100 μL) as a 1:50 dilution (to a final concentration of 0.8U/10 μL (4 μg/mL)); • LAR (NEB, 1000 units in 200 μL) as a 1:75 dilution (to a final concentration of 0.7U/10 μL (4 μg/mL)); and • PTP-β (UBI, #14-350, 10,000 units, 40 μg/571 μL) as a 1:17.5 dilution (to a final concentration of 10U/10 μL (4 μg/mL));
(§2) The compound to be tested is prepared as 1:16.7 and 1:50 dilutions from stock in a total volume of […] to give final concentrations of 626 and 200 μM. The reaction mixtures are prepared in a 96-well microtiter plate (on ice) as 55 μL assay buffer, 5 μL of the diluted compound (to a final concentration of 31.3 and 10 μM), 20 μL of the pNPP substrate solution (to a final concentration of 10 mM) and 20 μL PTease in assay buffer. The reactants are mixed well, the plate placed in a water bath at 30° C. and incubated for 10 minutes. The reaction is then terminated by adding 100 μL of 2M K2CO3 per well, and the absorbance is measured at 405 nm by conventional means.

Data set [2] addresses T2, PTP-β (Homo sapiens, UniProt P23467).
T2 construct: purchased UBI #14-350
Briefly: PTP-β inhibition, pNPP tyrosine phosphatase assay. The data set is classed as biochemical. The method, then:
as §1, §2

Data set [3] has as its target T3, PTP-1B (Homo sapiens, UniProt P18031).
T3 sequence (P18031 1-435): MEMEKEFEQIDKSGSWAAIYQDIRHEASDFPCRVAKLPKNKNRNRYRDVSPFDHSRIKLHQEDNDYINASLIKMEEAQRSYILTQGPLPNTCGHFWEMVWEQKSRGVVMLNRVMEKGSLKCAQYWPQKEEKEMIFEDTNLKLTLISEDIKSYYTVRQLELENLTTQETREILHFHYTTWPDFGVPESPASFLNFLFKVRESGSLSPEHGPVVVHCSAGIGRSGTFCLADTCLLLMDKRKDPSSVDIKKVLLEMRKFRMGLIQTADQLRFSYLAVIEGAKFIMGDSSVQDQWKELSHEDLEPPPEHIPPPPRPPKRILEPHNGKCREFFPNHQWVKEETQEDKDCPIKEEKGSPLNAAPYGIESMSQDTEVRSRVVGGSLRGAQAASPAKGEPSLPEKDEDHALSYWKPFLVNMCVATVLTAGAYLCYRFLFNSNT
Briefly: PTP-1B inhibition, Malachite Green assay with pIRP substrate. The data set is classed as biochemical. The method, then:
The compounds of the present invention are evaluated for biological activity as inhibitors of PTP-1B using, for example, a Malachite Green assay with pIRP as a substrate. The pIRP substrate includes a phosphotyrosine residue, and PTP-1B cleaves the phosphate group from the tyrosine, yielding the peptide and phosphate. The rate of the enzymatic reaction is determined by measuring the phosphate released during the reaction.
The reactants for the assay include 20 mM Tris-HCl, pH 7.4, 2 mM EDTA (ethylaminediamine tetraacetic acid) and 2 mM DTT (dithiothreitol) as the assay buffer, and 1 mM pIRP in assay buffer (1 mg in 0.59 mL buffer) as the substrate stock. The Malachite Green solution is prepared by adding 30 μL of 1% Tween 20 to 1 mL of Malachite Green Solution A. The stock of each compound to be tested is made up as 10 mM in DMSO (dimethylsulfoxide).
The compound to be tested is prepared as 1:5, 1:15.8, 1:50 and 1:158 dilutions from stock in a total volume of […]. The reaction mixtures are prepared in a 96-well microtiter plate as 27.5 μL assay buffer, […] of the diluted compound (to a final concentration of 100, 32, 10 and 3.2 μM), 10 μL of the pIRP substrate solution (to a final concentration of 200 μM) and 10 μL PTPase in assay buffer. The reactants are mixed well, the plate placed in a water bath at 30° C. and incubated for 3 minutes. The reaction is then terminated by adding 100 μL of Malachite Green solution per well, color is allowed to develop for 15 minutes, and the A650 is measured by conventional means.
Unless otherwise indicated, this assay was used to determine activity for the selected compounds whose activity is recorded in the Table.

Data set [4] concerns the target T4, CD-45 (Homo sapiens, UniProt P08575).
T4 construct: purchased Calbiochem
T4 sequence (P08575 609-1306 limits assumed): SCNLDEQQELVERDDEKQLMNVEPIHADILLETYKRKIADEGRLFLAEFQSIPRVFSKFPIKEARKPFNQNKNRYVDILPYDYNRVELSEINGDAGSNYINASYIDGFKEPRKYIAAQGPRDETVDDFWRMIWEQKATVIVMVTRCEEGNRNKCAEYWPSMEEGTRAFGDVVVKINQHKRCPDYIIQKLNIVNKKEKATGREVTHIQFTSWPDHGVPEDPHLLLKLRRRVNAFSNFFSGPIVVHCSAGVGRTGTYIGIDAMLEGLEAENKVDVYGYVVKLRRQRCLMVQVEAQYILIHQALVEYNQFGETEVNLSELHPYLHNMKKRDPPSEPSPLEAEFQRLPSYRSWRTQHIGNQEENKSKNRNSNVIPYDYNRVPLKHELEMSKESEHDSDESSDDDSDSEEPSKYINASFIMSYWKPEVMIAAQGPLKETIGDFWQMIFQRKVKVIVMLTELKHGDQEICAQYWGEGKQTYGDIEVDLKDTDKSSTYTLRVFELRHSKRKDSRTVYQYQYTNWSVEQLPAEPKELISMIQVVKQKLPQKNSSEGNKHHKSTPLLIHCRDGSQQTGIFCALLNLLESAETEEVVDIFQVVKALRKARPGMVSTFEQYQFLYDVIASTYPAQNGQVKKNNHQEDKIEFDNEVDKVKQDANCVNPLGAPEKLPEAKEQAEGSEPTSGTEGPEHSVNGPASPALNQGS
In words: CD45 inhibition, pNPP tyrosine phosphatase assay. The data set is classed as biochemical. The method, then:
as §1, §2

“And” between values parts separate entries of the source, which are not always exact repeats. Identical values can stand only once.

T2 sequence (P23467 1643-1997 limits assumed): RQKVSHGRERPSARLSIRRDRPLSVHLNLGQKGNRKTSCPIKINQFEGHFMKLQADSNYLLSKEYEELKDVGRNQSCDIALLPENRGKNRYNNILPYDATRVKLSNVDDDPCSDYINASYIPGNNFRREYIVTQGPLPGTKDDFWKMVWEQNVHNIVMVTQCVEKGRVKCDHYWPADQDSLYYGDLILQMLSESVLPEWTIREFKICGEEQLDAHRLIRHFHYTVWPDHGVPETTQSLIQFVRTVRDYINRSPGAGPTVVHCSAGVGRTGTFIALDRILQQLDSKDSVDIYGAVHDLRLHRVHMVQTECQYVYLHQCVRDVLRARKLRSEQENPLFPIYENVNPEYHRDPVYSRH

One may read the IC50 as the concentration needed to halve the response being measured. Lower therefore signals greater potency in that assay. For the compound `O=C(O)c1ccc(Cn2nc(-c3cccc(Oc4cccc(C(F)(F)F)c4)c3)sc2=Nc2ccc(Cl)c(Cl)c2)cc1` [Compound 187, 4-{2-(3,4-Dichloro-phenylimino)-5-[3{3-trifluoromethyl-phenoxy)-phenyl]-[1,3,4]thiadiaziol-3-ylmethyl}-benzoic acid], the IC50 came out at 1 µM in data set [1], 5 µM in data set [2], 1 µM in data set [3] and 5 µM in data set [4].
Take `O=C(O)c1cccc(Nc2nnc(-c3cc(OCc4ccccc4)cc(OCc4ccccc4)c3)s2)c1` [Compound 188, 3-[5-(3,5-Bis-benzyloxy-phenyl)-[1,3,4]thiadiazol-2-ylamino]-benzoic acid]: the IC50 in data set [3] is 10 µM.
What is called melting point is the temperature, or range, at which the solid turns liquid. On to `C/C(=N\OCC(=O)O)c1cccc(Nc2nnc(-c3cccc(Oc4cccc(C(F)(F)F)c4)c3)s2)c1` [Compound 190, [1-(3-{5-[3-(3-Trifluoromethyl-phenoxy)-phenyl]-[1,3,4]thiadiazol-2-ylamino}-phenyl)-ethylideneaminooxy]acetic acid], for which the melting point was 220 °C (dec.). In data set [3], this compound gave an IC50 of 5 µM.
Regarding `O=C(O)c1cccc(Nc2nnc(-c3cc(Oc4cccc(C(F)(F)F)c4)cc(Oc4cccc(C(F)(F)F)c4)c3)s2)c1` [Compound 198, 3-{5-[3,5-Bis-(3-trifluoromethyl-phenoxy)-phenyl]-[1,3,4]thiadiazol-2-ylamino}-benzoic acid], the IC50 in data set [3] is 4 µM.
`O=C(O)c1cccc(Oc2cccc(-c3nnc(Nc4ccc(Cl)c(Cl)c4)s3)c2)c1` [Example 7, (3-(3-{5[(3,4-dichlorophenyl)amino]-1,3,4-thiadiazol-2-yl}phenoxy)benzoic acid)]: the melting point lay in the range of 258 to 259 °C. For the same compound, in data set [1], the IC50 was 15 µM. Further, the IC50 in data set [2] worked out at 31 µM. In data set [3], the IC50 was found to be 12 µM. Further, in data set [4], the IC50 was 17 µM.
For `Clc1ccc(Nc2nnc(-c3cccc(Oc4cccc(-c5nnn[nH]5)c4)c3)s2)cc1Cl` [Example 14, {5-[3-(3-(1H-1,2,3,4-tetraazol-5-yl)phenoxy)phenyl](1,3,4-thiadiazol-2-yl)}(3,4-dichlorophenyl)amine], the concentration for half-maximal inhibition (IC50) in data set [1] came out at 12 µM; in data set [2], 24 µM; in data set [3], 5 µM; in data set [4], 10 µM.
Regarding `COc1cccc(-c2nn3cc(-c4ccc(-c5ccccc5)cc4)nc3s2)c1` [Example 16, (3-methoxy-1-(6-(4-phenylphenyl)imidazolo(2,1-b)1,3,4-thiadiazolin-2-yl)benzene)], the IC50 in data set [2] was greater than 100 µM; in data set [3], 12 µM; in data set [4], 30 µM.
In turn, `CCOc1cccc(-c2nnc(Nc3ccc(Br)c(Cl)c3)s2)c1` [Example 66, (4-bromo-3-chlorophenyl)[5-(3-ethoxyphenyl)(1,3,4-thiadiazol-2-yl)]amine] showed a melting point of 204 to 205 °C. In addition, 20 µM corresponded to half-maximal inhibition in data set [1] (IC50). The compound also came in with an IC50 in data set [2] greater than 100 µM. In data set [3], this compound returned an IC50 of 7 µM. In data set [4], this compound yielded an IC50 of 25 µM.
Take `O=[N+]([O-])c1cccc(-c2nnc(Nc3cccc(Br)c3)s2)c1` [Example 80, (3-bromophenyl)[5-(3-nitrophenyl)(1,3,4-thiadiazol-2-yl)]amine]: the IC50 in data set [1] is 14 µM and 8 µM; in data set [2], greater than 100 µM; in data set [3], 7 µM; in data set [4], 80 µM.
For the compound `Clc1cc(Nc2nnc(-c3cccc(Oc4ccccc4)c3)s2)ccc1Br` [Example 135], the IC50 in data set [1] was 20 µM and 12 µM; in data set [2], greater than 100 µM; in data set [3] it was 6 µM; in data set [4], 20 µM.
In turn, `O=C(O)c1ccc(CN(c2ccc(Cl)c(Cl)c2)c2nc(-c3ccc(-c4ccccc4)cc3)cs2)cc1` [Example 168, 4-({(3,4-dichlorophenyl)[4-(4-phenylphenyl)(1,3-thiazol-2-yl)]amino}methyl)benzoic acid.] displayed an IC50 in data set [3] of 1 µM.
`O=C(O)C(=O)Nc1ccc(CN(c2ccc(Cl)c(Cl)c2)c2nnc(-c3cccc(Oc4cccc(C(F)(F)F)c4)c3)s2)cc1` [Example 169]: the melting point fell in the range of 172 to 174 °C. Further, the IC50 in data set [3] came out at 1 µM.
Turning to `O=C(O)CCCn1nnnc1-c1cccc(Oc2cccc(-c3nnc(Nc4ccc(Cl)c(Cl)c4)s3)c2)c1` [Example 171], the melting point is 137 to 142 °C (dec.). This compound returned an IC50 in data set [3] of 2 µM.
`O=C(O)c1ccc(N/N=C/c2cccc(Oc3cccc(-c4nnc(Nc5ccc(Cl)c(Cl)c5)s4)c3)c2)cc1` [Example 172]: the melting point was 259 to 262 °C. The compound also yielded an IC50 in data set [1] of 1.6 µM. The same compound had an IC50 in data set [2] of 30 µM. In data set [3], this compound had an IC50 of 0.8 µM. In addition, inhibition in data set [4] was half-maximal at 14 µM (IC50).
